Laboratory results taken from patent US7148191B2, “Antigenic composition” (Intercell AG, priority 2000, dated 2006).

Tests used:
[1] = tested on: OVA257-264-peptide-specific IFN-γ-producing T cells; assay: IFN-γ ELISPOT of draining lymph node cells after injection of OVA257-264-peptide mixtures; assay type: in vivo, mice (C57B1/6); conditions: Example 11; day 4; peptide 300 μg, oligo-dIC26-mer 5 nmol, pR 100 μg/mouse; footpad
Procedure: Experimental Groups (4 Mice Per Group) • 1. OVA257-264-peptide+pIC+pR • 2. OVA257-264-peptide+pIC • 3. OVA257-264-peptide+pR On day 0 mice were injected into each hind footpad with a total volume of 100 μl (50 μl per footpad) containing the above mentioned compounds. Animals were sacrificed 4 days after injection and popliteal lymph nodes were harvested. Single cell suspensions were prepared by mincing lymph nodes through a 70 μm cell strainer. Thereafter, cells were washed twice with DMEM medium (Life Technologies) containing 5% fetal calf serum (FCS, SIGMA Chemicals). Cells were adjusted to 10^7 cells/ml in DMEM/5% FCS. IFN-γ ELISPOT assays were carried out in triplicates as described (Miyahira et al., 1995). […] Spots were counted using a Biosys reader (Biosys, Germany). […] The Results are expressed as the number of spots/1×10^6 unseparated cells±SD of triplicates.

[2] = tested on: peptide-specific IFN-γ-producing T cells in spleen or peripheral blood; assay: IFN-γ ELISPOT of peripheral blood leukocytes or spleen cells (systemic response) after injection of OVA257-264-peptide mixtures; assay type: in vivo, mice (C57B1/6); conditions: Example 11, FIG. 11; selected time points after one single injection
Procedure: To investigate whether the immune response induced by one single injection of peptide with pIC/pR is systemic, the rest of the animals (four per group) was bled from the tail vein at selected time points after injection, peripheral blood leukocytes (PBLs) were isolated, re-stimulated either with the relevant peptide, pIC, pR, ConA (positive control) or medium alone (background) and the number of IFN-γ-secreting T lymphocytes was determined using an ELISPOT assay. Assays were carried out in duplicates. Each spot represents a single IFN-γ-producing T cell. Spots were counted using a Biosys reader (Biosys, Germany). Number of background spots was subtracted from all samples. Results are expressed as the number of spots/1×10^6 cells±SD of duplicates.
(§1) To examine whether the immune response induced by one single injection of peptide with oligo-dIC/pR is systemic, the rest of the mice (4 mice/group) was investigated at selected time points after injection for the presence of peptide-specific IFN-γ-producing T cells in spleen or peripheral blood using an IFN-γ ELISPOT assay. Results are expressed as the number of spots/1×10^6 cells±SD of duplicates.

OVA-specific T cells = assay: IFN-γ ELISPOT of draining lymph node cells after injection of ovalbumin (OVA) mixtures; assay type: in vivo, mice (C57B1/6); conditions: Example 12, FIG. 12A; OVA 50 μg, oligo-dIC26-mer 5 nmol, pR 100 μg/mouse; footpad; day 4 LN
Procedure: Experimental Groups (4 Mice Per Group) • 1. OVA257-264-peptide+pIC+pR • 2. OVA257-264-peptide+pIC • 3. OVA257-264-peptide+pR On day 0 mice were injected into each hind footpad with a total volume of 100 μl (50 μl per footpad) containing the above mentioned compounds. Animals were sacrificed 4 days after injection and popliteal lymph nodes were harvested. Single cell suspensions were prepared by mincing lymph nodes through a 70 μm cell strainer. Thereafter, cells were washed twice with DMEM medium (Life Technologies) containing 5% fetal calf serum (FCS, SIGMA Chemicals). Cells were adjusted to 10^7 cells/ml in DMEM/5% FCS. […] This method is a widely used procedure for the quantification of antigen-specific T cells. […] Spots were counted using a Biosys reader (Biosys, Germany). […] The Results are expressed as the number of spots/1×10^6 unseparated cells±SD of triplicates. […]
Experimental Groups (4 Mice Per Group) • 1. […] Results are expressed as the number of spots/1×10^6 cells±SD of triplicates. […] Importantly, the IFN-γ production was detected not only upon the re-stimulation with the whole OVA protein but also with both, MHC class I (OVA257-264)- and II (OVA265-280)-restricted OVA-derived epitopes (FIG. 9).
Experimental Groups (8 Mice Per Group) • 1. […] Results are expressed as the number of spots/1×10^6 cells±SD of triplicates.

[3] = tested on: peptide-specific IFN-γ-producing T cells in peripheral blood; assay: IFN-γ ELISPOT of peripheral blood leukocytes after injection of ovalbumin (OVA) mixtures; assay type: in vivo, mice (C57B1/6); conditions: Example 12, FIG. 12B; PBLs re-stimulated with OVA257-264-peptide; selected time points after one single injection
Description: as §1, with “To further examine whether” for “To examine whether”, “injection of OVA protein with oligo-dIC/pR” for “injection of peptide with oligo-dIC/pR”, “cells in peripheral blood” for “cells in spleen or peripheral blood”

[4] = tested on: human monocyte-derived DCs; assay: In vitro phenotypic maturation of DCs, surface molecules by flow cytometry; assay type: cell-based; conditions: 48 hours; for phenotypic maturation of DCs (overall): each 10 μg/ml, LPS 1 μg/ml as control
[5] = Example 10, FIG. 10, 10 μg/ml, day 6-cultured DCs, vs untreated DCs

OVA257–264-Peptide (SIINFEKL) [OVA257-264-peptide]
local antigen-specific response in draining lymph node cells [1]: could not be observed | systemic response (peptide-specific IFN-γ-producing T cells in spleen or peripheral blood) [2]: could not be observed

OVA: Ovalbumin from chicken egg, grade V, SIGMA Chemicals, A-5503
local antigen-specific T cell response in lymph node cells (OVA-specific T cells): could not be observed | systemic response (peptide-specific IFN-γ-producing T cells in peripheral blood) [3]: could not be observed

Poly-L-arginine [pR]
phenotypic maturation of DCs (overall) ([4]; Example 10, FIG. 10): None of the above described phenotypic changes could be observed

Polyinosinic-polycytidylic acid [pIC]
expression of CD1a molecules [4, 5]: down-regulation | expression of CD86 and the maturation marker CD83 [4, 5]: de-novo expression | expression of HLA-DR, -DQ and HLA-I molecules, CD40, CD54, CD80 [4, 5]: up-regulation | phenotypic maturation of DCs (overall) ([4]; Example 10, FIG. 10): comparable to that induced by LPS | expression of CD11a, CD11c, CD13, CD25, CD29 and CD50 antigens ([4]; Example 10, 10 μg/ml, day 6-cultured DCs): slight up-regulation
